pIC50: −log10 of the molar value.

For the experiment, the target named is T1, Glutathione-S-transferase tagged Bir3 domain of cIAP1 (L250-G350) (Homo sapiens, UniProt Q13490).
T1 construct: The cIAP1 Bir3 domain construct (aa L250-G350) was prepared from a full length cIAP1 clone; made in house; host or cells: Escherichia coli BL21 (DE3), pGEX-6P-1 vector
T1 sequence (Q13490 250-350): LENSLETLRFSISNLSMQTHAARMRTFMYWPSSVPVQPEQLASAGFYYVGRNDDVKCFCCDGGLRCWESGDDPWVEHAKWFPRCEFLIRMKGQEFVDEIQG
Kind of experiment: Fluorescence polarization assay, cIAP1 Bir3 domain. The format is binding. Particulars: 20 nM cIAP1-Bir3, 2.5 nM AbuRPF-K-5FAM tracer, 20-minute incubation. As for the experimental part:
Materials: The cIAP1 Bir3 domain construct (aa L250-G350) was prepared from a full length cIAP1 clone (NCBI Reference Sequence: NM_001166.3). PCR was used to generate the Bir3 fragment which was inserted into a pGEX-6P-1 vector (GE LifeSciences) as a BamHI/XhoI fragment. Protein was prepared in Escherichia coli BL21 (DE3) grown at 37° C. containing ampicillin to an OD600 of 0.6. Protein expression was induced by 1 mM isopropyl β-D-1-thiogalactopyranoside (IPTG) for 3.75 hours.
Cells were lysed by sonication in buffer containing 100 mM Tris (pH 7.5), 150 mM NaCl, 5 mm dithiothreitol (DTT), 50 μM zinc acetate (ZnAc), ethylenediamine tetraacetic acid (EDTA) free Complete protease inhibitors (Roche Applied Science), 100 μg/mL lysozyme, and 0.5% Triton-X100. DNAse was added to the mixture after sonication. Proteins were purified from the soluble fraction using Glutathione Sepharose 4B resin (GE Lifesciences) followed by desalting on a PD-10 column (GE Lifesciences). This was followed by purification over an SEC 200 resin (GE Lifesciences). Final storage buffer consisted of 25 mM Tris, pH 7.5, 200 mM NaCl, 5 mM DTT, 50 uM ZnAc, 10% glycerol.
The fluorescence polarization assay was developed using Glutathione-S-transferase tagged Bir3 domain of cIAP1 (L250-G350). The tracer used was a synthetic peptide conjugated to 5-carboxyfluorescein (AbuRPF-K-5FAM).
Methods: Dilutions of cIAP1-Bir3 (20 nM) were added to 2.5 nM of fluorescent peptide tracer in assay buffer (final concentrations of 20 mM HEPES, pH 7.5, 1 mM DTT, 0.005% Tween-20 and 50 mM NaCl) containing various dilutions of binding inhibitors. Samples were read by a Tecan Ultra Evolution (Tecan US Inc, Durham N.C.) after a 20-minute incubation.
Fluorescence polarization values were plotted as a function of the antagonist concentration and the IC50 values were determined.
`CN[C@@H](C)C(=O)N[C@H](C(=O)N1CCC[C@H]1C(=O)N[C@H]1c2ccccc2C[C@H]1OCCCCCCO[C@@H]1Cc2ccccc2[C@@H]1NC(=O)[C@@H]1CCCN1C(=O)[C@@H](NC(=O)[C@H](C)NC)C1CCCCC1)C1CCCCC1` [Example 3, (S,S,2S,2′S)-N,N′-((1S,1′S,2R,2′R)-2,2′-(Hexane-1,6-diylbis(oxy))bis(2,3-dihydro-1H-indene-2,1-diyl))bis(1-((S)-2-cyclohexyl-2-((S)-2-(methylamino)propanamido)acetyl)pyrrolidine-2-carboxamide)]: the pIC50 is 7.89.
The figure for `C#CCO[C@@H]1Cc2ccccc2[C@@H]1NC(=O)[C@@H]1CCCN1C(=O)[C@@H](NC(=O)[C@H](C)NC)C1CCCCC1` [Example 2, (S)-1-((S)-2-cyclohexyl-2-((S)-2-(methylamino)propanamido)acetyl)-N-((1S,2R)-2-(prop-2-ynyloxy)-2,3-dihydro-1H-inden-1-yl)pyrrolidine-2-carboxamide] is 7.82; for `CN[C@@H](C)C(=O)N[C@H](C(=O)N1CCC[C@H]1C(=O)N[C@H]1c2ccccc2C[C@H]1OCC#CC#CCO[C@@H]1Cc2ccccc2[C@@H]1NC(=O)[C@@H]1CCCN1C(=O)[C@@H](NC(=O)[C@H](C)NC)C1CCCCC1)C1CCCCC1` [Example 1, (S,S,2S,2′S)-N,N′-((1S,1′S,2R,2′R)-2,2′-(hexa-2,4-diyne-1,6-diylbis(oxy))bis(2,3-dihydro-1H-indene-2,1-diyl))bis(1-((S)-2-cyclohexyl-2-((S)-2-(methylamino)propanamido)acetyl)pyrrolidine-2-carboxamide)] it is 7.92.
In the case of `CN[C@@H](C)C(=O)N[C@H](C(=O)N1CCC[C@H]1C(=O)N[C@H]1c2ccccc2C[C@@H]1OCC#CC#CCO[C@H]1Cc2ccccc2[C@@H]1NC(=O)[C@@H]1CCCN1C(=O)[C@@H](NC(=O)[C@H](C)NC)C1CCCCC1)C1CCCCC1` [Example 4, (S,S,2S,2′S)-N,N′-((1S,1′S,2S,2′S)-2,2′-(hexa-2,4-diyne-1,6-diylbis(oxy))bis(2,3-dihydro-1H-indene-2,1-diyl))bis(1-((S)-2-cyclohexyl-2-((S)-2-(methylamino)propanamido)acetyl)pyrrolidine-2-carboxamide)], the pIC50 was 7.37.

Broadly, the pIC50 is the IC50 on a negative log10 scale, so that one unit is a factor of ten. High values mean a low IC50, low ones a high IC50.

The values are drawn from patent US20100317593A1, “2,3-DIHYDRO-1H-INDENE COMPOUNDS” (ASTRAZENECA AB, priority 2009, published 2010).
